# Test results from patent US12655116B2, “Substituted isophthalic acid diamides” (Bayer Aktiengesellschaft, priority 2020, dated 2026).
# Key:
# ABUTH [1] = test: Pre-emergence herbicidal action against ABUTH; assay type: in vivo, Abutilon theophrasti
# Summary of the method: (§1)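 Visual rating at 3 weeks vs untreated pots; 0–100% scale, 100% = plants died. Treatment: aqueous WP/EC spray onto covering soil, 600–800 l/ha, 0.2% wetter, seeds in sandy loam.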
# AMARE [2] = test: Pre-emergence herbicidal action against AMARE; assay type: in vivo, Amaranthus retroflexus
# Summary of the method: as §1
# ECHCG [3] = test: Pre-emergence herbicidal action against ECHCG; assay type: in vivo, Echinochloa crus-galli
# Summary of the method: as §1
# MATIN [4] = test: Pre-emergence herbicidal action against MATIN; assay type: in vivo, Matricaria inodora
# Summary of the method: as §1
# POLCO = test: Pre-emergence herbicidal action against POLCO; assay type: in vivo, Polygonum convolvulus; details: dosage 80 g/ha
# From the text: Seeds of monocotyledonous and dicotyledonous weed plants and crop plants are laid out in sandy loam soil in wood-fiber pots and covered with soil. The compounds of the invention, formulated in the form of wettable powders (WP) or as emulsion concentrates (EC), are then applied to the surface of the covering soil in the form of an aqueous suspension or emulsion at a water application rate equivalent to 600 to 800 l/ha, with addition of 0.2% wetting agent. After the treatment, the pots are placed in a greenhouse and kept under good growth conditions for the trial plants. The damage to the test plants is scored visually after a test period of 3 weeks by comparison with untreated controls (herbicidal activity in percent (%): 100% activity=the plants have died, 0% activity=like control plants). […] The tables below illustrate, in an illustrative manner, the post-emergence herbicidal action of the compounds of the invention, the herbicidal activity being stated in percent.
# SETVI [5] = test: Pre-emergence herbicidal action against SETVI; assay type: in vivo, Setaria viridis
# Summary of the method: as §1
# DIGSA [6] = test: Pre-emergence herbicidal action against DIGSA; assay type: in vivo, Digitaria sanguinalis
# Summary of the method: as §1
# AMARE [7] = test: Post-emergence herbicidal action against AMARE; assay type: in vivo, Amaranthus retroflexus; details: 20 g/ha, visual assessment about 3 weeks after treatment, 100% = plants have died, 0% = like control plants
# Summary of the method: (§2)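 Greenhouse pot plants in sandy loam were sprayed at the one-leaf stage, 2 to 3 weeks after sowing, with WP or EC formulations as aqueous suspension or emulsion (600 to 800 l/ha water, 0.2% wetting agent). About 3 weeks later, damage was scored visually against untreated controls as % action (100% = dead, 0% = like control).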
# ECHCG [8] = test: Post-emergence herbicidal action against ECHCG; assay type: in vivo, Echinochloa crus-galli
# Summary of the method: as §2
# SETVI [9] = test: Post-emergence herbicidal action against SETVI; assay type: in vivo, Setaria viridis
# Summary of the method: as §2
# ALOMY [10] = test: Pre-emergence herbicidal action against ALOMY; assay type: in vivo, Alopecurus myosuroides; details: 80 g/ha, pre-emergence, scored visually after 3 weeks vs untreated controls (100% = plants have died, 0% = like control plants)
# Summary of the method: as §1
# AVEFA = test: Pre-emergence herbicidal action against AVEFA; assay type: in vivo, Avena fatua
# Summary of the method: as §1
# PHBPU [11] = test: Pre-emergence herbicidal action against PHBPU; assay type: in vivo, Pharbitis purpurea
# Summary of the method: as §1
# VERPE [12] = test: Pre-emergence herbicidal action against VERPE; assay type: in vivo, Veronica persica; details: dosage 80 g/ha
# Summary of the method: as §1
# VIOTR [13] = test: Pre-emergence herbicidal action against VIOTR; assay type: in vivo, Viola tricolor
# Summary of the method: as §1
# ABUTH [14] = test: Post-emergence herbicidal action against ABUTH; assay type: in vivo, Abutilon theophrasti; details: visual assessment about 3 weeks after treatment vs untreated controls
# Summary of the method: as §2
# ALOMY [15] = test: Post-emergence herbicidal action against ALOMY; assay type: in vivo, Alopecurus myosuroides; details: dosage 20 g/ha, visual assessment about 3 weeks after treatment vs untreated controls
# Summary of the method: as §2
# MATIN [16] = test: Post-emergence herbicidal action against MATIN; assay type: in vivo, Matricaria inodora
# Summary of the method: as §2
# PHBPU [17] = test: Post-emergence herbicidal action against PHBPU; assay type: in vivo, Pharbitis purpurea; details: dosage 20 g/ha
# Summary of the method: as §2
# VERPE [18] = test: Post-emergence herbicidal action against VERPE; assay type: in vivo, Veronica persica
# Summary of the method: as §2
# VIOTR [19] = test: Post-emergence herbicidal action against VIOTR; assay type: in vivo, Viola tricolor
# Summary of the method: as §2
# DIGSA [20] = test: Post-emergence herbicidal action against DIGSA; assay type: in vivo, Digitaria sanguinalis
# Summary of the method: as §2
# [21] = 80 g/ha, scored visually after 3 weeks vs untreated controls (100% = plants have died, 0% = like control plants)
# [22] = 20 g/ha, scored visually after 3 weeks vs untreated controls, 100% = plants have died, 0% = like control plants
# [23] = Tripleurospermum inodorum, 504 h, dosage 20 g/ha
# [24] = Setaria viridis, 504 h, dosage 20 g/ha
compound,measurement,setting,value
Cc1nnc(NC(=O)c2ccc(C(F)F)c(C(=O)NCC(F)F)c2Br)o1 [Example 6-169],Pre-emergence action against ABUTH (herbicidal activity),ABUTH [1]; [21],90%
same,Pre-emergence action against AMARE in %,AMARE [2]; [22],90%
same,Pre-emergence action against AMARE in %,AMARE [2]; [21],100%
same,Pre-emergence action against ECHCG in %,ECHCG [3]; 80 g/ha,90%
same,Pre-emergence action against MATIN in %,MATIN [4]; dosage 80 g/ha,80%
same,Pre-emergence action against POLCO in %,POLCO,100%
same,Pre-emergence action against SETVI in %,SETVI [5]; dosage 80 g/ha,100%
same,Pre-emergence action against DIGSA in %,DIGSA [6]; dosage 80 g/ha,90%
same,Post-emergence action at 20 g/ha against AMARE in %,AMARE [7],90%
same,Post-emergence action against ECHCG in %,ECHCG [8]; dosage 5 g/ha,80%
same,Post-emergence action against ECHCG in %,ECHCG [8]; dosage 20 g/ha,90%
same,Post-emergence action against SETVI in %,SETVI [9]; dosage 20 g/ha,90%
CC(NC(=O)c1c(C(F)(F)F)ccc(C(=O)Nc2nnnn2C)c1Cl)C1CC1 (stereo not shown) [Example 1-135],Pre-emergence action against ABUTH (herbicidal activity),ABUTH [1]; [21],100%
same,Pre-emergence action against ABUTH (herbicidal activity in percent),"ABUTH [1]; dosage 20 g/ha, scored visually after 3 weeks vs untreated controls, 100% = plants have died, 0% = like control plants",100%
same,Pre-emergence action against ALOMY (herbicidal activity),ALOMY [10],90%
same,Pre-emergence action against AMARE in %,AMARE [2]; [22],100%
same,Pre-emergence action against AMARE in %,AMARE [2]; [21],100%
same,Pre-emergence action against AVEFA,"AVEFA; 20 g/ha, scored visually after 3 weeks, 100% = plants have died, 0% = like control plants",80%
same,Pre-emergence action against AVEFA in %,"AVEFA; 80 g/ha, pre-emergence",100%
same,Pre-emergence action against ECHCG in %,ECHCG [3]; 20 g/ha,80%
same,Pre-emergence action against ECHCG in %,ECHCG [3]; 80 g/ha,100%
same,Pre-emergence action against MATIN in %,MATIN [4]; dosage 20 g/ha,90%
same,Pre-emergence action against MATIN in %,MATIN [4]; dosage 80 g/ha,100%
same,Pre-emergence action against PHBPU in %,PHBPU [11]; dosage 80 g/ha,80%
same,Pre-emergence action against SETVI in %,SETVI [5]; dosage 80 g/ha,100%
same,Pre-emergence action against VERPE in %,VERPE [12],90%
same,Pre-emergence action against VIOTR in %,VIOTR [13]; dosage 80 g/ha,100%
same,Pre-emergence action against DIGSA in %,DIGSA [6]; dosage 20 g/ha,90%
same,Pre-emergence action against DIGSA in %,DIGSA [6]; dosage 80 g/ha,100%
same,Post-emergence action against ABUTH in %,ABUTH [14]; dosage 20 g/ha,80%
same,Post-emergence action against ALOMY in %,ALOMY [15],90%
same,Post-emergence action at 20 g/ha against AMARE in %,AMARE [7],90%
same,Post-emergence action against ECHCG in %,ECHCG [8]; dosage 5 g/ha,80%
same,Post-emergence action against ECHCG in %,ECHCG [8]; dosage 20 g/ha,100%
same,Post-emergence action against MATIN in %,MATIN [16]; dosage 5 g/ha,80%
same,Post-emergence action against MATIN in %,MATIN [16]; dosage 20 g/ha,90%
same,Post-emergence action against PHBPU in %,PHBPU [17],90%
same,Post-emergence action against SETVI in %,SETVI [9]; dosage 20 g/ha,80%
same,Post-emergence action against VERPE in %,VERPE [18]; 5 g/ha,80%
same,Post-emergence action against VERPE in %,VERPE [18]; 20 g/ha,90%
same,Post-emergence action against VIOTR in %,VIOTR [19]; 5 g/ha,80%
same,Post-emergence action against VIOTR in %,VIOTR [19]; 20 g/ha,90%
same,Post-emergence action against DIGSA,DIGSA [20]; 20 g/ha,90%
CCNC(=O)c1c(C(F)(F)F)ccc(C(=O)Nc2nnnn2C)c1OC [Example 1-57],pest or weed control at 80 g/ha,"ABUTH [1]; Abutilon theophrasti, 504 h, 80 g/ha, scored visually after 3 weeks vs untreated controls (100% = plants have died, 0% = like control plants)",100%
same,pest or weed control at 20 g/ha,"ABUTH [1]; Abutilon theophrasti, 504 h, dosage 20 g/ha, scored visually after 3 weeks vs untreated controls, 100% = plants have died, 0% = like control plants, read-out: Pre-emergence action against ABUTH (herbicidal activity in percent)",100%
same,pest or weed control at 80 g/ha,"ALOMY [10]; Alopecurus myosuroides, 504 h",80%
same,pest or weed control at 20 g/ha,"AMARE [2]; Amaranthus retroflexus, 504 h, 20 g/ha, scored visually after 3 weeks vs untreated controls, 100% = plants have died, 0% = like control plants",100%
same,pest or weed control at 80 g/ha,"AMARE [2]; Amaranthus retroflexus, 504 h, 80 g/ha, scored visually after 3 weeks vs untreated controls, 100% = plants have died, 0% = like control plants",100%
same,pest or weed control at 80 g/ha,"AVEFA; Avena fatua, 504 h, 80 g/ha, pre-emergence",90%
same,pest or weed control at 20 g/ha,"ECHCG [3]; Echinochloa crus-galli, 504 h, 20 g/ha",90%
same,pest or weed control at 80 g/ha,"ECHCG [3]; Echinochloa crus-galli, 504 h, 80 g/ha",90%
same,pest or weed control at 20 g/ha,MATIN [4]; [23],90%
same,pest or weed control at 80 g/ha,"MATIN [4]; Tripleurospermum inodorum, 504 h, dosage 80 g/ha",100%
same,pest or weed control at 20 g/ha,"PHBPU [11]; Ipomoea purpurea, 504 h, dosage 20 g/ha",80%
same,pest or weed control at 80 g/ha,"PHBPU [11]; Ipomoea purpurea, 504 h, dosage 80 g/ha",80%
same,pest or weed control at 20 g/ha,SETVI [5]; [24],90%
same,pest or weed control at 80 g/ha,"SETVI [5]; Setaria viridis, 504 h, dosage 80 g/ha",100%
same,pest or weed control at 80 g/ha,"VERPE [12]; Veronica persica, 504 h",80%
same,pest or weed control at 20 g/ha,"VIOTR [13]; Viola tricolor, 504 h, dosage 20 g/ha",100%
same,pest or weed control at 80 g/ha,"VIOTR [13]; Viola tricolor, 504 h, dosage 80 g/ha",100%
same,pest or weed control at 20 g/ha,"DIGSA [6]; Digitaria sanguinalis, 504 h, dosage 20 g/ha",100%
same,pest or weed control at 80 g/ha,"DIGSA [6]; Digitaria sanguinalis, 504 h, dosage 80 g/ha",100%
same,pest or weed control at 5 g/ha,"ABUTH [14]; Abutilon theophrasti, 504 h, dosage 5 g/ha",90%
same,pest or weed control at 20 g/ha,"ABUTH [14]; Abutilon theophrasti, 504 h, dosage 20 g/ha",90%
same,pest or weed control at 20 g/ha,"ALOMY [15]; Alopecurus myosuroides, 504 h",80%
same,pest or weed control at 20 g/ha,"AMARE [7]; Amaranthus retroflexus, 504 h",100%
same,pest or weed control at 5 g/ha,"ECHCG [8]; Echinochloa crus-galli, 504 h, dosage 5 g/ha",80%
same,pest or weed control at 20 g/ha,"ECHCG [8]; Echinochloa crus-galli, 504 h, dosage 20 g/ha",100%
same,pest or weed control at 5 g/ha,"MATIN [16]; Tripleurospermum inodorum, 504 h, dosage 5 g/ha",80%
same,pest or weed control at 20 g/ha,MATIN [16]; [23],90%
same,pest or weed control at 20 g/ha,"PHBPU [17]; Ipomoea purpurea, 504 h",90%
same,pest or weed control at 5 g/ha,"SETVI [9]; Setaria viridis, 504 h, dosage 5 g/ha",100%
same,pest or weed control at 20 g/ha,SETVI [9]; [24],100%
same,pest or weed control at 5 g/ha,"VERPE [18]; Veronica persica, 504 h, 5 g/ha",80%
same,pest or weed control at 20 g/ha,"VERPE [18]; Veronica persica, 504 h, 20 g/ha",90%
same,pest or weed control at 5 g/ha,"VIOTR [19]; Viola tricolor, 504 h, 5 g/ha",100%
same,pest or weed control at 20 g/ha,"VIOTR [19]; Viola tricolor, 504 h, 20 g/ha",100%
same,pest or weed control at 5 g/ha,"DIGSA [20]; Digitaria sanguinalis, 504 h, 5 g/ha",100%
same,pest or weed control at 20 g/ha,"DIGSA [20]; Digitaria sanguinalis, 504 h, 20 g/ha",100%
